Consider 61 compounds from US20240199611A1, “ANTIBACTERIAL COMPOUNDS” (JANSSEN SCIENCES IRELAND UNLIMITED COMPANY, priority 2021, published 2024).

One series concerns Mycobacterium tuberculosis strain EH4.0 expressing green-fluorescent protein (GFP). Briefly: microbe, parasite or virus in culture. Type of series: cell-based. As to conditions: Test 1 (and/or Test 2), read-out: pIC50 (converted).
On to `CCc1nc2sc(Cl)cn2c1C(=O)NCc1ccc(N2CCN(S(=O)(=O)C(F)(F)F)C=N2)c(F)c1` [Compound 135], for which the IC50 was 7.24 nM.

Regarding `Cc1cnc2nc(C(F)F)c(C(=O)NCc3ccc(N4CCN(S(=O)(=O)C(F)(F)F)C(C(C)C)=N4)c(F)c3)n2c1` [Compound 249], the IC50 is 1.86 nM.

`CCc1nc2ccc(F)cn2c1C(=O)NCc1ccc(N2CCN(S(=O)(=O)C(F)(F)F)C(C3CC3)=N2)cc1` [Compound 227]: the IC50 was 11.5 nM.

Consider `CC1=NN(c2ccc(CNC(=O)c3c(C(F)(F)F)nc4ncccn34)cc2F)CCN1S(=O)(=O)C(F)(F)F` [Compound 254], for which the IC50 is 53.7 nM.

Consider `CCc1nc2ccc(Cl)cn2c1C(=O)NCc1ccc(N2CCN(S(=O)(=O)C(F)(F)F)C(C3CC3)=N2)cc1` [Compound 230], for which the IC50 was 6.61 nM.

In the case of `CCc1nc2ncc(C)cn2c1C(=O)NCc1ccc(N2CCN(S(=O)(=O)C(F)(F)F)C(C)=N2)cc1` [Compound 250], the IC50 was 1.58 nM.

For `CC1=NN(c2ncc(CNC(=O)c3c(C(F)(F)F)nc4ccccn34)cc2F)CCN1S(=O)(=O)C(F)(F)F` [Compound 256], the IC50 was 18.6 nM.

As for `Cc1cn2c(C(=O)NCc3ccc(N4CCN(S(=O)(=O)C(F)(F)F)C=N4)c(F)c3)c(C)nc2s1` [Compound 153], the IC50 was 1.78 nM.

Regarding `CCc1nc2ccc(C)cn2c1C(=O)NCc1ccc(N2CCN(S(=O)(=O)C(F)(F)F)C(C3CC3)=N2)cc1` [Compound 229], the IC50 is 1.07 nM.

Turning to `CCc1nc2n(c1C(=O)NCc1ccc(N3CCN(S(=O)(=O)C(F)(F)F)C(C(C)C)=N3)c(F)c1)CCCC2` [Compound 242], the IC50 is 2.4 nM.

Regarding `CCc1nc2nc3c(cn2c1C(=O)NCc1ccc(N2CCN(S(=O)(=O)C(F)(F)F)C=N2)c(F)c1)CCC3` [Compound 154], the IC50 was 1.7 nM.

As to `CC(C)C1=NN(c2ccc(CNC(=O)c3c(C(F)(F)F)nc4n3CCCC4)cc2F)CCN1S(=O)(=O)C(F)(F)F` [Compound 239], the IC50 was 8.91 nM.

In the case of `CCc1nc2ncc(C)cn2c1C(=O)NCc1ccc(N2CCN(S(=O)(=O)C(F)(F)F)C(C3CC3)=N2)cc1` [Compound 228], the IC50 was 1.45 nM.

In the case of `CCc1nc2c(F)cc(Cl)cn2c1C(=O)NCc1ccc(N2CCN(S(=O)(=O)C(F)(F)F)C(C(C)C)=N2)cc1` [Compound 244], the IC50 is 4.57 nM.

On to `O=C(NCc1ccc(N2CCN(S(=O)(=O)C(F)(F)F)C=N2)c(F)c1)c1c(C(F)F)nc2n1CCCC2` [Compound 147], for which the IC50 is 3.8 nM.

Turning to `CCc1nc2ccc(C)cn2c1C(=O)NCc1ccc(N2CCN(S(=O)(=O)C(F)(F)F)C(C3CCC3)=N2)cc1` [Compound 237], the IC50 was 5.75 nM.

For `Cc1ccc2nc(C(F)(F)F)c(C(=O)NCc3ccc(N4CCN(S(=O)(=O)C(F)(F)F)C=N4)c(F)c3)n2c1` [Compound 175], the IC50 was 1.58 nM.

As for `CCC1=NN(c2ncc(CNC(=O)c3c(C(F)(F)F)nc4ccccn34)cc2F)CCN1S(=O)(=O)C(F)(F)F` [Compound 236], the IC50 was 6.17 nM.

Take `CCc1nc2ccc(C)cn2c1C(=O)NCc1cnc(N2CCN(S(=O)(=O)C(F)(F)F)C(C(C)C)=N2)c(F)c1` [Compound 246]: the IC50 was 2.63 nM.

Staying with this series, now noted: read-out: pIC50 (converted).
Take `COC1=NN(c2ccc(CNC(=O)c3nnc4ccc(Cl)cn34)cc2F)CCN1S(=O)(=O)C(F)(F)F` [Compound 92]: the IC50 is 53.7 nM.

As to `CCc1nc2c(C)cc(C)cn2c1C(=O)NCc1ccc(N2CCN(S(=O)(=O)C(F)(F)F)C=N2)c(F)c1` [Compound 95], the IC50 was 38 nM.

System in another series: not given
Assay: not given
Conditions: not given
Usually melting point stands for the temperature of the solid-liquid transition. `CCc1nc2ncc(C(=O)NC)cn2c1C(=O)NCc1ccc(N2CCN(S(=O)(=O)C(F)(F)F)C=N2)cc1` [Compound 61] came in with a melting point of 193.44 °C.

As to `CCc1nc2cc(OC)ccn2c1C(=O)NCc1ccc(N2CCN(S(=O)(=O)C(F)(F)F)C(OC)=N2)cc1` [Compound 52], the melting point was found to be 164.28 °C.

In the case of `CCc1nc2ccc(Cl)cn2c1C(=O)NCc1ccc(N2CCN(S(=O)(=O)CCOC)C=N2)cc1` [Compound 19], the melting point amounted to 196.34 °C.

Consider `O=C(NCc1ccc(N2CCN(S(=O)(=O)C(F)(F)F)C=N2)cc1)c1c(C2CC2)nc2ncc(Cl)cn12` [Compound 7], for which the melting point amounted to 208.41 °C.

For `CCc1nc2cc(Cl)c(OC)cn2c1C(=O)NCc1ccc(N2CCN(S(=O)(=O)C(F)(F)F)C=N2)cc1` [Compound 67], the melting point stood at 206.99 °C.

In turn, `CCc1nc2ccc(Cl)cn2c1C(=O)NCc1ccc(N2CCN(S(=O)(=O)C(F)(F)F)C(CCOC)=N2)cc1` [Compound 55] displayed a melting point of 193.51 °C.

Compound `CCc1nc2cc(Cl)c(OC)cn2c1C(=O)NCc1ccc(N2CCN(S(=O)(=O)C(F)(F)F)C(OC)=N2)cc1` [Compound 45] returned a melting point of 155.29 °C.

`CCc1nc2ccc(N3CCCC3)cn2c1C(=O)NCc1ccc(N2CCN(S(=O)(=O)C(F)(F)F)C=N2)cc1` [Compound 65] registered a melting point of 228.15 °C.

`CCc1nc2ccc(Cl)cn2c1C(=O)NCc1ccc(N2CCN(C(=O)C(F)(F)F)C=N2)cc1` [Compound 66] returned a melting point of 211.3 °C.

For the compound `CCc1nc2ccc(CCCOC)cn2c1C(=O)NCc1ccc(N2CCN(S(=O)(=O)C(F)(F)F)C=N2)cc1` [Compound 63], the melting point was 159.95 °C.

`CCc1nc2ccc(Cl)cn2c1C(=O)NCc1ccc(N2CCN(C=O)C=N2)cc1` [Compound 38] displayed a melting point of 255.93 °C.

`CCc1nc2ncc(Cl)cn2c1C(=O)NCc1ccc(N2CCN(C(C)=O)C=N2)cc1` [Compound 24] gave a melting point of 258.01 °C.

Regarding `CCc1nc2cc(OC)c(Cl)cn2c1C(=O)NCc1ccc(N2CCN(S(=O)(=O)C(F)(F)F)C=N2)cc1` [Compound 64], the melting point came out at 193.79 °C.

Take `CCc1nc2ncc(Cl)cn2c1C(=O)NCc1ccc(N2CCN(S(=O)(=O)C(F)(F)F)C(OC)=N2)cc1` [Compound 27]: the melting point turned out to be 174.88 °C.

Consider `CCc1nc2ccc(Cl)cn2c1C(=O)NCc1ccc(N2CCN(C)C(C)=N2)cc1` [Compound 59], for which the melting point was found to be 202.94 °C.

The compound `CCc1nc2ccc(Cl)cn2c1C(=O)NCc1ccc(N2CCN(C(C)=O)C=N2)cc1` [Compound 18] had a melting point of 245.36 °C.

With `CCc1nc2ncc(F)cn2c1C(=O)NCc1ccc(N2CCN(S(=O)(=O)C(F)(F)F)C=N2)cc1` [Compound 10], the melting point came out at 171.42 °C.

The compound `CCc1nc2ccc(OC)cn2c1C(=O)NCc1ccc(N2CCN(S(=O)(=O)C(F)(F)F)C(OC)=N2)c(F)c1` [Compound 48] registered a melting point of 74.6 °C.

Turning to `CCc1nc2cc(OC)c(Cl)cn2c1C(=O)NCc1ccc(N2CCN(S(=O)(=O)C(F)(F)F)C(OC)=N2)c(F)c1` [Compound 46], the melting point was determined as 176.82 °C.

With `CCc1nc2ncc(Cl)cn2c1C(=O)NCc1ccc(N2CCN(S(=O)(=O)CC(C)C)C=N2)cc1` [Compound 23], the melting point worked out at 207.21 °C.

In the case of `CCc1nc2ccc(Cl)cn2c1C(=O)NCc1ccc(N2CCN(Cc3nc(C(F)(F)F)cs3)C=N2)cc1` [Compound 69], the melting point was determined as 163.46 °C.

`CCc1nc2ccc(Cl)cn2c1C(=O)NCc1ccc(N2CCN(S(=O)(=O)CC(C)C)C=N2)cc1` [Compound 17] displayed a melting point of 196.82 °C.

With `CCc1nc2ccc(OC)cn2c1C(=O)NCc1ccc(N2CCN(S(=O)(=O)C(F)(F)F)C=N2)cc1` [Compound 42], the melting point was found to be 147.57 °C.

In turn, `CCc1nc2ccc(Cl)cn2c1C(=O)NCc1ccc(N2CCN(S(=O)(=O)C(F)(F)F)C(C)=N2)cc1` [Compound 21] displayed a melting point of 157.49 °C.

As to `COc1ccn2nc(C)c(C(=O)NCc3ccc(N4CCN(S(=O)(=O)C(F)(F)F)C=N4)cc3)c2c1` [Compound 14], the melting point turned out to be 192.27 °C.

`CCc1nc2c(Cl)c(OC)ccn2c1C(=O)NCc1ccc(N2CCN(S(=O)(=O)C(F)(F)F)C=N2)cc1` [Compound 39] returned a melting point of 211.19 °C.

In turn, `CCc1nc2ccc(Cl)cn2c1C(=O)NCc1ccc(N2CCNC=N2)cc1` [Compound 56] registered a melting point of 236.36 °C.

On to `CCc1nc2ccc(Cl)cn2c1C(=O)NCc1ccc(N2CCN(S(=O)(=O)C(F)(F)F)C=N2)cc1OC` [Compound 22], for which the melting point came to 175.12 °C.

Turning to `CCc1nc2n(c1C(=O)NCc1ccc(N3CCN(S(=O)(=O)C(F)(F)F)C=N3)cc1)CCCC2` [Compound 3], the melting point came to 189.22 °C.

As for `CCc1nc2ccc(Cl)cn2c1C(=O)NCc1ccc(N2CCN(c3nccs3)C=N2)cc1` [Compound 76], the melting point came to 232.4 °C.

With `CCc1nc2ncc(COC)cn2c1C(=O)NCc1ccc(N2CCN(S(=O)(=O)C(F)(F)F)C=N2)cc1` [Compound 33], the melting point amounted to 225.92 °C.

`CCC1=NN(c2ccc(CNC(=O)c3c(CC)nc4ccc(Cl)cn34)cc2)CCN1S(=O)(=O)C(F)(F)F` [Compound 2] gave a melting point of 178.31 °C.

`CCc1nc2ccc(Cl)cn2c1C(=O)NCc1ccc(N2CCN(C)C=N2)cc1` [Compound 15] displayed a melting point of 206.66 °C.

Turning to `CCc1nc2cccc(Cl)n2c1C(=O)NCc1ccc(N2CCN(S(=O)(=O)C(F)(F)F)C(OC)=N2)cc1` [Compound 70], the melting point is 138.71 °C.

`CCc1nc2ccc(C#N)cn2c1C(=O)NCc1ccc(N2CCN(S(=O)(=O)C(F)(F)F)C=N2)cc1` [Compound 72] gave a melting point of 216.25 °C.

For the compound `CCc1nc2ccc(Cl)cn2c1C(=O)NCc1cc(F)c(N2CCN(S(=O)(=O)C(F)(F)F)C=N2)c(F)c1` [Compound 35], the melting point turned out to be 152.93 °C.

`CCc1nc2cc(OC)ccn2c1C(=O)NCc1ccc(N2CCN(S(=O)(=O)C(F)(F)F)C=N2)cc1` [Compound 51] returned a melting point of 185.08 °C.

In the case of `CCc1nc2cc(OC)ccn2c1C(=O)NCc1ccc(N2CCN(S(=O)(=O)C(F)(F)F)C(OC)=N2)c(F)c1` [Compound 75], the melting point amounted to 135.16 °C.

As to `CCc1nc2ccc(Cl)cn2c1C(=O)NCc1ccc(N2CCN(S(=O)(=O)C(F)(F)F)C(OC)=N2)c(F)c1` [Compound 37], the melting point came to 193.36 °C.

The compound `CCc1nc2n(c1C(=O)NCc1ccc(N3CCNC=N3)cc1)CCCC2` [Compound 57] gave a melting point of 211.47 °C.
